Data from US20230145200A1, “COMPOSITIONS AND METHODS OF TREATING CANCER” (Tillead Therapeutics, Inc., priority 2020, published 2023).
Residue numbers refer to the chain shown, from its start. “Also recorded” adds a separate entry of the source. One block for each compound: values may come before it.

Experiments:
[1] = target: T1, caspase-3 (Homo sapiens, UniProt P42574); test: Caspase activity in A549 tumor cells (FIG. 10b); format: cell-based; parameters: endogenous in cells; host or cells: A549 cells
T1 sequence (P42574 29-175 limits assumed): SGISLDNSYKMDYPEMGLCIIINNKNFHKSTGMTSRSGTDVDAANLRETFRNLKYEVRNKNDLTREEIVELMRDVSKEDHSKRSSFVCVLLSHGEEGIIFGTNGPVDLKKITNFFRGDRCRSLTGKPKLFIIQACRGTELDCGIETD
T1 sequence (P42574 176-277 limits assumed): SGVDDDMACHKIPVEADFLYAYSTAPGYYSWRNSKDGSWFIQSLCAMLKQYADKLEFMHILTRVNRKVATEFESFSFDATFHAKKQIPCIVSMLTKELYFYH

[2] = tested on: PD-L1; test: PD-L1 expression flow cytometry assay; format: cell-based, murine; conditions: MC38 cells; 1 μM Docetaxel, 10 μM Emricasan, or the combination; 24 h; FIG. 21
Method: PD-L1 expression flow cytometry assay: Cell surface PD-L1 expression was detected by flow cytometry assay. The cells were plated in 24-well plates and treated with 1 μM Docetaxel, 10 μM Emricasan, and the combination of the two drugs. Untreated cells were used as a control. After 24 h of treatment, the cells were dissociated and harvested for PD-L1 staining with BioLegend PE anti-mouse PD-L1 antibody (MIH7 clone). The PD-L1 expression was measured in BD Accuri C6 Plus flow cytometer, The mean density of PD-L1 was analyzed by FlowJo V10 software.

[3] = tested on: MC38 cells; test: Tumor cell killing / cytotoxicity, MC38 (FIG. 11a); format: cell-based, murine
[4] = target: T1, caspase-3; test: Caspase activity in MiaPaca-2 tumor cells (FIG. 10c); format: cell-based; parameters: endogenous in cells; host or cells: MiaPaca-2 cells
[5] = tested on: MiaPaca-2; test: Tumor cell killing / cytotoxicity, MiaPaca-2 (FIG. 11c); format: cell-based; conditions: with 10 μM of emricasan
[6] = target: T2, caspase-3 (Mus musculus, UniProt P70677); test: Caspase-3 activity assay in MC38 cells; format: cell-based, murine
T2 construct: the cells were lysed in 25 μL 1× lysis buffer on ice for 20 min; endogenous in cells; host or cells: MC38 cells (lysate)
T2 sequence (P70677 29-175 limits assumed): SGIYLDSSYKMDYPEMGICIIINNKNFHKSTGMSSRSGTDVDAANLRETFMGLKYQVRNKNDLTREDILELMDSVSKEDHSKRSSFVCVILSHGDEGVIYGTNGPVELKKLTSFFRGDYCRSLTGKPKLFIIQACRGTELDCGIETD
T2 sequence (P70677 176-277 limits assumed): T1 sequence (P42574 176-277 limits assumed) with V3T, D5E, D6E, H10Q, A46S, Q50L, D53H, F77L, A79S
Method: Caspase-3 activity assay: Caspase-3 activity was measured by using Sigma Caspase 3 Assay Kit, Fluorimetric. In brief, MC38 cells were cultured in 96-well plates and treated with Docetaxel and Docetaxel/Emricasan combination, respectively. Dose-dependent effect of Docetaxel on caspase-3 activity was tested in MC38 cells; Docetaxel/Emricasan combination treatment was applied to reverse Docetaxel induced caspase-3 activity. After 24 h drug treatment, the cells were lysed in 25 μL 1× lysis buffer on ice for 20 min, then added 200 μL of 16.7 μM Ac-DEVD-AMC substrate solution to incubate at RT in the dark for 30 min. The fluorescent signals were read in BioTek Synergy 4 plate reader at excitation 360 nm and emission 460 nm.

[7] = tested on: IFNβ; test: Interferon-beta (IFNβ) ELISA assay of MC38 cell culture supernatants; format: cell-based, murine; conditions: 24 hours
Method: The concentration of IFNβ was measured with VeriKine-HS Interferon Beta Serum ELISA Kit (PBL Assay Science) in accordance with the manufacturer's instruction. The data of absorbance was recorded at 450 nm by using BioTek synergy 4 plate reader and analyzed with GraphPad software.

[8] = tested on: MC38 cells; test: Apoptosis flow cytometry assay (FITC Annexin V/PI); format: cell-based, murine; conditions: for apoptosis induction in MC38 cells: agent alone: Venetoclax 3 μM, Doxorubicin 1 μM, Docetaxel 10 μM, Simvastatin 10 μM
Method: Cell lines and drugs: MC38 and B16 cell lines were derived from C57BL6 murine colon adenocarcinoma and melanoma cells, respectively. The cells were maintained in Dulbecco's modified Eagle's medium (DMEM) supplemented with 10% heat-inactivated fetal bovine serum (FBS) and 100 U/mL penicillin/streptomycin. The CT26 cells were derived from murine colon adenocarcinoma cells and cultured in RPMI1640 with 10% FBS and 2 mM GlutaMAX.
Apoptosis flow cytometry assay: FITC Annexin V Apoptosis Detection Kit with PI (BioLegend) was used for apoptosis detection. The MC38 cells were seeded in 24-well plate with 1×10^5 cells/well and cultured overnight. […] After 24 hours treatment, cells were collected and dissociated as single cell suspensions for Annexin V/PI staining. In briefing, cells were washed twice with cold BioLegend's Cell Staining Buffer, then resuspended in […] Annexin V Binding Buffer. […] FITC Annex V and […] Propidium Iodide (PI) Solution were added in each sample. The samples were gently vortexed and incubated for 15 minutes at room temperature in the dark. Wash the samples with Cell Staining Buffer one time and resuspend cells in […] Cell Staining Buffer for flow cytometry analysis. The data were recorded on BD Accuri™ C6 plus flow Cytometer and analyzed with FlowJo software.

[9] = tested on: A549; test: Tumor cell killing / cytotoxicity, A549 (FIG. 11b); format: cell-based; conditions: with 10 μM of emricasan
[10] = tested on: MC38 model; test: In vivo tumor growth study, MC38 model; parameters: species or system mice
Method: (§1) In vivo studies: Female C57BL6 and Balb/C mice of 9 weeks of age were obtained from the Jackson lab, ME. Passages were made twice weekly with a 1:2 split and cultured in DMEM:F12 supplemented with 10% FBS (HyClone, Ft. Collins, Colo.). For inoculation, approximately 5-8×10^5 cells were suspended in 100 μL of PBS (Becton Dickinson Labware, Bedford, Mass.) and injected subcutaneously into the flanks of mice. Most mice developed palpable tumors within 5 days of inoculation. Tumor bearing mice are grouped in cohorts of 5-8 mice for dosing studies. Mice with tumor sizes of 50-100 mm^3 are randomized between treatment groups. Baseline tumor volumes were established and dosing initiation began on day 0. Emricasan was administered as a salt intratumorally or interperitoneally for 3-4 days. If docetaxel was used, it was administered interperitoneally or intravenously in Tween80/PEG300 or Tween80/ethanol with PBS the day before emricasan was given. Emricasan and docetaxel were co-formulated in Tween80/PEG300 and co-administered intratumorally after diluting with PBS. Tumor volumes were measured twice a week using standard calipers and calculated as […], with the length and width defined as the long and short axes, respectively. Measurement of body weight was initiated on day 0 and repeated once a week.

[11] = tested on: B16 model; test: In vivo tumor growth study, B16 model; parameters: species or system mice; conditions: emricasan amine salt intratumorally 5 mpk and 10 mpk q.d 4 days, FIG. 19
Method: as §1, with “Mice with tumor sizes of 50-100 mm^3 are randomized between treatment groups.” left out

[12] = tested on: CT26 model; test: In vivo tumor growth study, CT26 model; parameters: species or system mice; conditions: emricasan amine salt intratumorally 5 mpk and 10 mpk q.d 4 days, FIG. 20
Method: as §1, with “Mice with tumor sizes of 50-100 mm^3 are randomized between treatment groups.” left out

[13] = agent alone: simvastatin 10 μM, venetoclax 3 μM, doxorubicin 1 μM, docetaxel 10 μM

docetaxel concentration activating caspase most efficiently ([1]; A549): ~1 µM | docetaxel concentration activating caspase most efficiently ([4]; MiaPaca-2): ~1 µM | docetaxel concentration activating caspase most efficiently ([6]; MC38 cells, 24 h, FIG. 10a): ~1 µM
Structure (SMILES): CC(=O)O[C@@]12CO[C@@H]1C[C@H](O)[C@@]1(C)C(=O)[C@H](O)C3=C(C)[C@@H](OC(=O)[C@H](O)[C@@H](NC(=O)OC(C)(C)C)c4ccccc4)C[C@@](O)([C@@H](OC(=O)c4ccccc4)[C@H]21)C3(C)C [docetaxel]
PD-L1 expression on tumor cells [2]: upregulating PD-L1 expression | docetaxel concentration killing tumor cells more efficiently ([3]; MC38, with 10 μM of emricasan, FIG. 11a): ~1 µM | cytotoxicity in several tumor cells ([3]; several tumor cells (FIG. 11a-c: MC38, A549, MiaPaca-2)): showed cytotoxicity | docetaxel concentration killing tumor cells more efficiently [5]: ~1 µM | IFNβ production in MC38 cells [7, 13]: slightly reduced IFNβ production | apoptosis induction in MC38 cells ([8]; 24 hours): induced substantial apoptosis | docetaxel concentration killing tumor cells more efficiently [9]: ~1 µM | tumor control, systemic docetaxel added to intratumoral emricasan ([10]; docetaxel 30 mpk single dose intraperitoneal (FIG. 14) or intravenous (FIG. 15), emricasan intratumoral 10 mpk q.d 3-4 days after docetaxel): improved tumor control of emricasan

Structure (SMILES): COc1cccc2c1C(=O)c1c(O)c3c(c(O)c1C2=O)C[C@@](O)(C(=O)CO)C[C@@H]3O[C@H]1C[C@H](N)[C@H](O)[C@H](C)O1 [doxorubicin]
IFNβ production in MC38 cells [7, 13]: slightly reduced IFNβ production | apoptosis induction in MC38 cells ([8]; 24 hours): induced substantial apoptosis

inhibition of caspase activity in tumor cells ([1]; 10 μM of emricasan, docetaxel-treated A549): fully inhibiting the caspase activity | inhibition of caspase activity in tumor cells ([4]; 10 μM of emricasan, docetaxel-treated MiaPaca-2): fully inhibiting the caspase activity | inhibition of caspase activity in tumor cells ([6]; 10 μM of emricasan, docetaxel-treated MC38 cells, FIG. 10a): fully inhibiting the caspase activity | concentration at which emricasan began to effectively inhibit the caspase-3 activity ([6]; tumor cells, FIG. 10a-c): ~1 µM | concentration at which emricasan reached the maximum activity (caspase-3 inhibition) ([6]; tumor cells, FIG. 10a-c): ~10 µM
Structure (SMILES): C[C@H](NC(=O)C(=O)Nc1ccccc1C(C)(C)C)C(=O)N[C@@H](CC(=O)O)C(=O)COc1c(F)c(F)cc(F)c1F [emricasan, (S)-3-((S)-2-(2-((2-(tert-butyl)phenyl)amino)-2-oxoacetamido)propanamido)-4-oxo-5-(2,3,5,6-tetrafluorophenoxy)pentanoic acid]
PD-L1 expression on tumor cells [2]: upregulated the PD-L1 expression | tumor control efficacy [11]: produced tumor control efficacy | IFNβ production in docetaxel treated MC38 cells ([7]; addition of 10 μM emricasan to docetaxel 10 μM, FIG. 9): significantly enhanced the IFNβ production | IFNβ production in doxorubicin treated MC38 cells ([7]; addition of 10 μM emricasan to doxorubicin 1 μM, FIG. 8): significantly enhanced the IFNβ production | IFNβ production in simvastatin treated MC38 cells ([7]; addition of 10 μM emricasan to simvastatin 10 μM, FIG. 7): significantly enhanced the IFNβ production | IFNβ production in MC38 cells ([7]; emricasan alone, FIG. 6): slightly enhanced the IFNβ production | tumor control efficacy [12]: produced tumor control efficacy | apoptosis induced by docetaxel ([8]; addition of 10 μM emricasan to Docetaxel 10 μM, 24 hours, FIG. 5): significantly reduced the apoptosis | apoptosis induced by doxorubicin ([8]; addition of 10 μM emricasan to Doxorubicin 1 μM, 24 hours, FIG. 4): significantly reduced the apoptosis | apoptosis induced by simvastatin ([8]; addition of 10 μM emricasan to Simvastatin 10 μM, 24 hours, FIG. 2): significantly reduced the apoptosis | apoptosis induced by venetoclax ([8]; addition of 10 μM emricasan to Venetoclax 3 μM, 24 hours, FIG. 3): significantly reduced the apoptosis | apoptosis in MC38 cells ([8]; emricasan alone, 24 hours treatment, FIG. 1): partially blocked the apoptosis | rejection of rechallenged tumor in cured mice ([10]; cured mice from the FIG. 15 study, rechallenged, FIG. 16): able to reject rechallenged tumor; also recorded: able to reject rechallenged tumors more efficiently | systemic tumor control, systemic emricasan added to intravenous docetaxel ([10]; docetaxel intravenous 50 mpk single dose, emricasan intraperitoneal 20 mpk b.i.d 3 days after docetaxel, FIG. 18): improved the systemic tumor control of intravenously administered docetaxel | distal tumor control ([10]; emricasan alone intratumorally 10 mpk q.d 4 days, FIG. 13): moderate | tumor control at the site of injection ([10]; emricasan alone intratumorally 10 mpk q.d 4 days, small MC38 tumors (~50 mm^3), FIG. 12): able control small MC38 tumors | number of cured mice ([10]; study of FIG. 15: docetaxel intravenous 30 mpk single dose, emricasan intratumoral 10 mpk q.d 4 days): 5 mice
